Experimental data reported in article PMC10593844, “Structure-function analyses reveal key molecular determinants of HIV-1 CRF01_AE resistance to the entry inhibitor temsavir” (Nature Communications, 2023).
Values joined by “and” are separate entries in the source; they are usually repeats but may differ in a detail not shown here. Equal values may be shown once.

Tests used:
[1] = system: HIV-1 pseudovirus bearing CRF01_AE 92TH023 Env WT; assay: organism not typed; type: cell-based; details: for Relative infectivity (%): 92TH023 WT
[2] = system: HIV-1 pseudovirus bearing EnvJR-FL S375M; assay: organism not typed; type: cell-based
[3] = system: HIV-1 pseudovirus bearing clade B YU2 Env LM+ST; assay: organism not typed; type: cell-based; details: for Relative infectivity (%): YU2 LM+ST
[4] = system: HIV-1 pseudovirus bearing clade B YU2 Env WT; assay: organism not typed; type: cell-based; details: for Relative infectivity (%): YU2 WT
[5] = system: HIV-1 pseudovirus bearing clade B YU2 Env S375H; assay: organism not typed; type: cell-based; details: for Relative infectivity (%): YU2 S375H
[6] = system: HIV-1 pseudovirus bearing CRF01_AE CM244 Env LM; assay: organism not typed; type: cell-based; details: for Relative infectivity (%): CM244 LM
[7] = system: HIV-1JR-FL Env S375N on HEK293T cells; type: binding; details: JRFL S375N; temsavir 10 µM; listed as TMR
[8] = system: CRF01_AE 92TH023 Env LM on HEK293T cells; type: binding; details: 92TH023 LM; temsavir 10 µM; listed as TMR
[9] = system: HIV-1 pseudovirus bearing EnvJR-FL WT; assay: organism not typed; type: cell-based; details: for Relative infectivity (%): JRFL WT
[10] = system: HIV-1JR-FL Env WT on HEK293T cells; type: binding; details: JRFL WT; temsavir 10 µM; listed as TMR
[11] = system: HIV-1 pseudovirus bearing CRF01_AE 92TH023 Env LMHS; assay: organism not typed; type: cell-based; details: for Relative infectivity (%): 92TH023 LMHS
[12] = system: HIV-1JR-FL Env S375F on HEK293T cells; type: binding; details: JRFL S375F; temsavir 10 µM; listed as TMR
[13] = system: CRF01_AE 92TH023 Env H375T on HEK293T cells; type: binding; details: 92TH023 H375T; temsavir 10 µM; listed as TMR
[14] = system: HIV-1 pseudovirus bearing EnvJR-FL S375T; assay: organism not typed; type: cell-based; details: for Relative infectivity (%): JRFL S375T
[15] = system: HIV-1 pseudovirus bearing clade B YU2 Env S375T; assay: organism not typed; type: cell-based; details: for Relative infectivity (%): YU2 S375T
[16] = system: HIV-1 pseudovirus bearing EnvJR-FL S375H; assay: organism not typed; type: cell-based; details: for Relative infectivity (%): JRFL S375H
[17] = system: HIV-1 pseudovirus bearing CRF01_AE CM244 Env WT; assay: organism not typed; type: cell-based; details: for Relative infectivity (%): CM244 WT
[18] = system: CRF01_AE CM244 Env LM+HS on HEK293T cells; type: binding; details: temsavir 10 µM, listed as TMR
[19] = system: HIV-1 pseudovirus bearing EnvJR-FL S375N; assay: organism not typed; type: cell-based; details: for Relative infectivity (%): JRFL S375N
CRF01_AE strains = system: CRF01_AE strains; parameters: method as in PMID 30604750; details: CRF01_AE strains; cited from earlier work
[20] = system: CRF01_AE 92TH023 Env LMHT on HEK293T cells; type: binding; details: 92TH023 LMHT; temsavir 10 µM; listed as TMR
[21] = system: HIV-1 pseudovirus bearing CRF01_AE 92TH023 Env LMHT; assay: organism not typed; type: cell-based; details: for Relative infectivity (%): 92TH023 LMHT
[22] = system: clade B YU2 Env LMST on HEK293T cells; type: binding; details: temsavir 10 µM, listed as TMR

COc1cnc(-n2cnc(C)n2)c2[nH]cc(C(=O)C(=O)N3CCN(C(=O)c4ccccc4)CC3)c12 [Temsavir, temsavir]
Relative infectivity (%) ([1]; Temsavir 1 nM): 89.8645% and 102.181% and 86.0322% | Relative infectivity (%) ([1]; Temsavir 5 nM): 77.4465% and 120.721% and 86.7772% | Relative infectivity (%) ([1]; Temsavir 10 nM): 69.308% and 86.3374% and 95.4665% | Relative infectivity (%) ([1]; Temsavir 50 nM): 75.3192% and 101.13% and 84.1355% | IC50 ([1]; Cf2Th-CD4/CCR5): > 50 nM | IC50 ([2]; Cf2Th-CD4/CCR5): 64.7 nM | Relative infectivity (%) ([2]; JRFL S375M, Temsavir 0.1 nM): 98.6007% and 143.038% and 92.762% | IC50 ([3]; Cf2Th-CD4/CCR5): 32.1 nM | Relative infectivity (%) ([3]; Temsavir 1 nM): 95.2565% and 91.9655% and 79.6279% | Relative infectivity (%) ([3]; Temsavir 5 nM): 83.0048% and 82.0339% and 77.855% | Relative infectivity (%) ([3]; Temsavir 10 nM): 75.1553% and 73.7876% and 56.2664% | Relative infectivity (%) ([3]; Temsavir 50 nM): 36.2326% and 38.0343% and 31.1158% | Relative infectivity (%) ([3]; Temsavir 100 nM): 20.7287% and 13.4951% and 13.1747% | IC50 ([4]; Cf2Th-CD4/CCR5): 0.68 nM | Relative infectivity (%) ([4]; Temsavir 1 nM, Fig 2f): 27.4498% and 23.3742% and 28.1647% | Relative infectivity (%) ([4]; Temsavir 2 nM, Fig S1): 66.79% and 41.21% and 35.57% | Relative infectivity (%) ([4]; Temsavir 5 nM, Fig 2f): 1.267% and 2.642% and 1.583% | Relative infectivity (%) ([4]; Temsavir 5 nM, Fig S1): 6.29% and 2.61% and 2.85% | Relative infectivity (%) ([4]; Temsavir 10 nM, Fig 2f): 0.2419% and 0.2962% and 0.3923% | Relative infectivity (%) ([4]; Temsavir 10 nM, Fig S1): 2.59% and 2.79% and 2.69% | Relative infectivity (%) ([4]; Temsavir 50 nM, Fig 2f): 0.2461% and 0.2675% and 0.3334% | Relative infectivity (%) ([4]; Temsavir 50 nM, Fig S1): 2.66% and 2.72% and 2.93% | Relative infectivity (%) ([4]; Temsavir 100 nM, Fig 2f): 0.2542% and 0.2474% and 0.3435% | Relative infectivity (%) ([4]; Temsavir 100 nM, Fig S1): 2.55% and 3.03% and 2.93% | IC50 ([5]; Cf2Th-CD4/CCR5): 22.9 nM | Relative infectivity (%) ([5]; Temsavir 1 nM): 63.2919% and 87.0597% and 84.5852% | Relative infectivity (%) ([5]; Temsavir 5 nM): 57.7086% and 71.798% and 64.2482% | Relative infectivity (%) ([5]; Temsavir 10 nM): 66.6494% and 65.3275% and 50.1024% | Relative infectivity (%) ([5]; Temsavir 50 nM): 26.1516% and 30.7973% and 25.917% | Relative infectivity (%) ([5]; Temsavir 100 nM): 13.7111% and 12.275% and 13.4865% | Relative infectivity (%) ([6]; Temsavir 1 nM): 102.819% and 104.55% and 70.4862% | Relative infectivity (%) ([6]; Temsavir 10 nM): 98.1419% and 107.4% and 59.1318% | Relative infectivity (%) ([6]; Temsavir 50 nM): 106.175% and 96.9147% and 54.579% | IC50 ([6]; Cf2Th-CD4/CCR5): > 50 nM | sCD4 binding (+TMR) - Fold over DMSO [7]: 0.2273 and 0.2477 and 0.2229 | sCD4 binding (+TMR) - Fold over DMSO [8]: 1.042 and 0.933 and 0.9789 | IC50 ([9]; Cf2Th-CD4/CCR5): 0.36 nM | Relative infectivity (%) ([9]; Temsavir 0.1 nM): 88.4413% and 81.9041% and 67.8312% | Relative infectivity (%) ([9]; Temsavir 5 nM): 0.09027% and 0.782% and 0.1663% | Relative infectivity (%) ([9]; Temsavir 25 nM): 0.07266% and 0.1285% and 0.09925% and 0.3863% | Relative infectivity (%) ([9]; Temsavir 100 nM): 0.1307% and 0.3086% and 0.1992% and 0.5674% | sCD4 binding (+TMR) - Fold over DMSO [10]: 0.09994 and 0.08955 and 0.1163 | Relative infectivity (%) ([11]; Temsavir 1 nM): 49.3528% and 37.816% and 43.3804% | Relative infectivity (%) ([11]; Temsavir 5 nM): 29.4428% and 33.6115% and 29.1035% | Relative infectivity (%) ([11]; Temsavir 10 nM): 21.0612% and 17.7261% and 12.1457% | Relative infectivity (%) ([11]; Temsavir 50 nM): 7.315% and 6.366% and 6.4059% | IC50 ([11]; Cf2Th-CD4/CCR5): 0.89 nM | sCD4 binding (+TMR) - Fold over DMSO [12]: 0.9879 and 0.8506 and 0.9038 | sCD4 binding (+TMR) - Fold over DMSO [13]: 0.7474 and 0.9648 and 0.9745 | IC50 ([14]; Cf2Th-CD4/CCR5): 0.43 nM | Relative infectivity (%) ([14]; Temsavir 0.1 nM): 69.2755% and 98.112% and 68.2496% | Relative infectivity (%) ([14]; Temsavir 5 nM): 1.701% and 2.403% and 0.1043% | Relative infectivity (%) ([14]; Temsavir 25 nM): 0.2129% and 0.1167% and 0.02715% and 9.3062% | Relative infectivity (%) ([14]; Temsavir 100 nM): 0.02755% and 0.0119% and 0.01656% and 2.113% | IC50 ([15]; Cf2Th-CD4/CCR5): 0.73 nM | Relative infectivity (%) ([15]; Temsavir 1 nM): 32.779% and 22.5844% and 35.0676% | Relative infectivity (%) ([15]; Temsavir 5 nM): 2.479% and 1.401% and 1.77% | Relative infectivity (%) ([15]; Temsavir 10 nM): 0.4727% and 0.2789% and 0.1619% | Relative infectivity (%) ([15]; Temsavir 50 nM): 0.1346% and 0.1101% and 0.1511% | Relative infectivity (%) ([15]; Temsavir 100 nM): 0.1098% and 0.1253% and 0.1727% | IC50 ([16]; Cf2Th-CD4/CCR5): > 100 nM | Relative infectivity (%) ([16]; Temsavir 0.1 nM): 97.5172% and 99.7027% and 99.1558% | Relative infectivity (%) ([16]; Temsavir 0.5 nM): 94.7921% and 100.166% and 82.7419% | Relative infectivity (%) ([16]; Temsavir 1 nM): 92.4628% and 111.302% and 80.2089% | Relative infectivity (%) ([16]; Temsavir 5 nM): 89.7935% and 91.5252% and 60.6402% | Relative infectivity (%) ([16]; Temsavir 25 nM): 193.211% and 192.383% and 121.78% and 152.325% | Relative infectivity (%) ([16]; Temsavir 100 nM): 67.6822% and 45.331% and 44.6004% and 67.6402% | Relative infectivity (%) ([17]; Temsavir 1 nM): 91.0915% and 114.42% and 104.549% | Relative infectivity (%) ([17]; Temsavir 5 nM): 80.9718% and 103.03% and 93.7921% | Relative infectivity (%) ([17]; Temsavir 10 nM): 79.7783% and 110.299% and 108.245% | Relative infectivity (%) ([17]; Temsavir 50 nM): 78.0773% and 106.103% and 90.5088% | IC50 ([17]; Cf2Th-CD4/CCR5): > 50 nM | sCD4 binding (+TMR) - Fold over DMSO [18]: 0.6661 and 0.4581 and 0.6625 | IC50 ([19]; Cf2Th-CD4/CCR5): 1.22 nM | Relative infectivity (%) ([19]; Temsavir 0.1 nM): 85.6384% and 86.7177% and 89.7623% | Relative infectivity (%) ([19]; Temsavir 0.5 nM): 73.4943% and 55.2266% and 75.8961% | Relative infectivity (%) ([19]; Temsavir 25 nM): 4.928% and 3.547% and 2.352% and 8.953% | Relative infectivity (%) ([19]; Temsavir 100 nM): 2.171% and 1.397% and 0.7541% and 3.487% | IC50 (CRF01_AE strains): > 5800 nM | sCD4 binding (+TMR) - Fold over DMSO [20]: 0.7044 and 0.6853 and 0.7442 | Relative infectivity (%) ([21]; Temsavir 1 nM): 42.8978% and 67.1593% and 55.5357% | Relative infectivity (%) ([21]; Temsavir 5 nM): 44.0227% and 46.691% and 23.9805% | Relative infectivity (%) ([21]; Temsavir 50 nM): 14.3245% and 26.4308% and 14.3408% | IC50 ([21]; Cf2Th-CD4/CCR5): 1.31 nM | sCD4 binding (+TMR) - Fold over DMSO [22]: 0.9452 and 1.1963 and 0.9128
